From paper PMC8862293, “Quercetin mitigates rheumatoid arthritis by inhibiting adenosine deaminase in rats” (Molecular Medicine, 2022)

Molecular target: T1, adenosine deaminase (ADA) (Rattus norvegicus, UniProt Q920P6)
T1 construct: native enzyme partially purified from rat joint tissue
T1 sequence (Q920P6 2-352): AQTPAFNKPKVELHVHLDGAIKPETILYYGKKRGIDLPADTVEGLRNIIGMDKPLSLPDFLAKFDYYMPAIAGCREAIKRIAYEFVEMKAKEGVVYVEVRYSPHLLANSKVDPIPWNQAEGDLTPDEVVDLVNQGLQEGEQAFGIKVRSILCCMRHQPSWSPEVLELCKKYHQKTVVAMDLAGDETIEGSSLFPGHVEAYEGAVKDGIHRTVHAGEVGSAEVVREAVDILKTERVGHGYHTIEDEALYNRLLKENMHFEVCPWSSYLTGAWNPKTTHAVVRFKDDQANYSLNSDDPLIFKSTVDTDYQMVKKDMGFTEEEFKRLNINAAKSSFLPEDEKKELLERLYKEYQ
Assay: Colorimetric (Giusti) ADA activity assay on partially purified rat joint enzyme; Lineweaver-Burk kinetics
Type: biochemical

O=c1c(O)c(-c2ccc(O)c(O)c2)oc2cc(O)cc(O)c12 [quercetin]
IC50: 170 µM
